This is an account of results in patent publication US20110020457A1, “POLYMER-SURFACTANT NANOPARTICLES FOR SUSTAINED RELEASE OF COMPOUNDS” (Wayne State University, priority 2006, published 2011).

“Also recorded” adds a separate entry of the source. Where two headings read alike, the source gives them in different places.

Usually pKa stands for the pH at which an ionisable group is half protonated.

For data set [1] the following is noted: also after multiple dosing; cited from earlier work.
For data set [2] the following is noted: cited from earlier work.
The conditions of data set [3]: pH 7.4. How it is done:
In vitro release studies: In vitro release of nanoparticle-encapsulated drug was determined under sink conditions. The term “sink conditions” refers to release conditions in which the volume of the buffer used is sufficient to dissolve all of the drug present in the delivery system. Such conditions are used to assure that the amount of drug released is not limited by the degree of solubility in the buffer or solvent used. Nanoparticles (˜5 mg) were dispersed in 0.5 ml of phosphate-buffered saline (PBS, pH 7.4, 0.15M) and suspended in DispoDialyzer® (10 kDa MWCO, Pierce) dialysis tubes. These were then placed in a 15-ml centrifuge tube containing 10 ml of PBS. The whole assembly was shaken at 100 rpm and 37.0±0.5° C. in an orbital shaker (Brunswick Scientific, C24 incubator shaker, NJ). […] Drug concentration in the release samples was determined as in drug loading determinations. Stability of different drugs under in vitro release conditions was determined and the drug release profile was corrected for degradation, if any.
Initially, the stability of these drugs under the release conditions (PBS, pH 7.4 and 37° C.) were investigated.

For data set [4], the system named is JC tumors (doxorubicin-resistant mammary adenocarcinoma). In words: Tumor growth after combination PDT and chemotherapy in drug-resistant tumor. The following applies: single i.v. dose, 4 mg/kg doxorubicin. It is filed as in vivo, female Balb/c mice. The source says: FIG. 16. Nanoparticle-mediated combination PDT and chemotherapy overcame tumor drug resistance in vivo. […] About twenty four hours after treatment administration, tumors were exposed to light of 665 nm wavelength (50 J/cm^2). Animals were then monitored for tumor growth. The results are shown as percent increase in tumor volume as a function of time after treatment (days), with the various treatment protocols.
Nanoparticle-mediated combination PDT-chemotherapy inhibited drug-resistant tumor growth. The in vivo efficacy of nanoparticle-mediated combination chemo- and photodynamic therapy was studied in a mouse model of drug-resistant tumor. Drug-resistant JC tumors (doxorubicin-resistant mammary adenocarcinoma) grown subcutaneously in female Balb/c mice were used in these experiments. Mice were administered a single i.v. dose of the different treatments. […] About 24 hrs after treatment administration, tumors were exposed to light of 665 nm wavelength (50 J/cm^2). Animals were then monitored for tumor growth.

Data set [5] deals with MCF-7 cells. The experiment in a line: Cytotoxicity in drug-sensitive cells, MTS assay (Example 5). It is filed as cell-based, Human. The following applies: doxorubicin in solution. The method, then: (§1) For cytotoxicity studies, NCI-ADR/RES or MCF-7 cells were seeded in 96-well plates at a seeding density of 5000-10000 cells per well per 0.1 mL of medium and allowed to attach overnight. […] Untreated cells and empty nanoparticles were used as controls. […] Cytotoxicity was determined over a period of 10 days using a commercially available MTS assay (Promega). Results were analyzed by using an ANOVA. Differences were considered significant at P<0.05.
In general terms: Tetrazolium assays rely on reduction of a dye to a coloured formazan, in cell work by metabolically active cells.

Data set [6] concerns NCI-ADR/RES cells. The experiment in a line: Intracellular distribution of doxorubicin by fluorescence microscopy. The following applies: 2.5 μg/mL doxorubicin, 2 h. In kind it is cell-based. How it is done:
At the end of the treatment period, cells were washed three times with cold PBS and then lysed using 100 μL of cell culture lysis reagent (CCLR; Promega). The protein content of the cell lysates was determined using the Pierce (Rockford, Ill.) BCA protein assay. Cell lysates were then mixed with 300 μL of methanol and incubated at 37° C. for 6 h at 100 rpm. Samples were centrifuged at 14 000 rpm for 10 min at 4° C. The concentration of rhodamine in the methanolic extract was determined by HPLC as described before. Data were expressed as rhodamine accumulation normalized to total cell protein. For fluorescence microscopy, the uptake and intracellular distribution of doxorubicin in NCI-ADR/RES cells were determined qualitatively using fluorescence microscopy. Cells ([…]) were seeded on coverslips placed in 35 mm dishes.
At 2 h post-treatment, cells were rinsed with drug-free medium and incubated with 75 nM Lysotracker Green (Invitrogen) for 30 min. Cells were then washed and counterstained with DAPI (4′,6-diamidino-2-phenylindole, Invitrogen). Images were captured with a BX60 Olympus fluorescence microscope. Images captured using red, blue, and green filters were overlaid to determine localization and association of doxorubicin-associated red fluorescence in the nucleus and endolysosomes, respectively.

For data set [7], the system named is NCI-ADR/RES cells. The experiment in a line: Cytotoxicity in drug-resistant cells, MTS assay (Example 5). In kind it is cell-based. The method, then:
as §1

Data set [8] concerns ROS. In words: Nanoparticle-mediated ROS generation ex vitro (APF fluorescence). To be noted: photo-activated. The text has this: PBS and empty nanoparticles were used as negative controls. To determine the effect of dose of light on the amount of ROS generated, above samples were photo-activated with 10 consecutive doses of light (1200 mJ/cm^2 per dose) measuring fluorescence after each illumination. […] Experiments performed as above but without light irradiation were used as light negative controls.

Data set [9] has as its system MCF-7 cells. The experiment in a line: Cytotoxicity of methylene blue PDT. To be noted: 0.3 or 0.6 μM, no light.

Take `CCCCC(CC)COC(=O)CC(C(=O)OCC(CC)CCCC)S(=O)(=O)[O-].[Na+]` (stereo not drawn) [AOT, dioctylsodium sulfosuccinate]: the “Elimination and accumulation in the body” value in data set [1] is “easily removed from the body through renal elimination, and does not accumulate”. Moreover, the pKa in data set [2] (sulfonic group) was less than 1.
Turning to `Clc1cccc(Cl)c1N=C1NCCN1` [Clonidine], the “Stability under the release conditions” value in data set [3] is given as “stable”.
On to `O=C(O)Cc1ccccc1Nc1c(Cl)cccc1Cl` [Diclofenac, diclofenac sodium], for which, in data set [3], the “Stability under the release conditions” value is given as “stable”.
For `COc1cccc2c1C(=O)c1c(O)c3c(c(O)c1C2=O)C[C@@](O)(C(=O)CO)C[C@@H]3O[C@H]1C[C@H](N)[C@H](O)[C@H](C)O1` [Doxorubicin], in data set [4], the “Therapeutic effect on tumor growth” value was “did not show a significant therapeutic effect”. Moreover, the pKa in [2] is given as approximately 8.2. In [2] (pH 7.4), the Ionized fraction entry is “about 86%”. In addition, the “Cytotoxicity in drug-sensitive cells” value in data set [5] was “dose-dependent cytotoxicity”. For the same molecule, the “Doxorubicin in nuclei of cells” value in data set [6] is given as “No or insignificant doxorubicin fluorescence”. The “Intracellular distribution of doxorubicin” value in [6] (listed as Free doxorubicin) is “diffuse distribution within the cells, with a significant fraction appearing in vesicles located near the cell membrane; also recorded: present near the cell surface”. For the same molecule, the “Stability under the release conditions” value in [3] is reported as “biphasic, first-order degradation profile”. Further, the “Concentration required to induce cytotoxicity” value in data set [7] (doxorubicin in solution, drug-resistant cells) is more than 50 µg/mL.
Consider `COc1ccc(CCN(C)CCCC(C#N)(c2ccc(OC)c(OC)c2)C(C)C)cc1OC` (stereo not drawn) [Verapamil], for which the “Effect on resistance to doxorubicin” value in data set [7] (verapamil 23.0 μg/mL with doxorubicin 0.4 μg/mL in solution) was “reversed the resistance to doxorubicin”.
In the case of `CN(C)c1ccc2nc3ccc(=[N+](C)C)cc-3sc2c1` [methylene blue, Methylene blue], the “Increase in fluorescence at 0.6 μM compared to 0.3 μM” value in [8] is recorded as 2 fold. Also, the “Cytotoxic effect without light-activation” value in data set [9] was “no significant effect”.
